Patent publication US20240261236A1, “METHODS OF USING NMDA RECEPTOR ANTAGONISTS” (Seelos Therapeutics, Inc., priority 2021, published 2024)

What was measured:
[1] = test system: adults with major depressive disorder (MDD) who are at imminent risk of suicide; test: CADSS dissociation, Phase 2 Part 1
[2] = Hemodynamic effects (blood pressure), Phase 2 Part 1; assay type: in vivo, human; settings: for Diastolic BP: baseline 79.0; for Systolic BP: baseline 121
Excerpt: (§1) The study schedule is identical for Parts 1 and 2. After admission to the emergency room or hospital, each subject will participate in a 1 to 2 day screening phase, a 16-day treatment phase including SOC during which study drug will be administered 2 times per week, for a total of 5 doses across the 16-day treatment period and a 2-week safety follow-up phase for a total of up to 5 weeks of study participation. Subjects will be treated as inpatients for approximately 7 days (including screening), and assuming the subject meets readiness for discharge criteria, will be discharged on Day 6 to continue the trial as outpatients, provided it is clinically appropriate to do so. Subjects will return to the clinic to receive study drug and to undergo study assessments 2 times per week until Day 16. Subjects will be evaluated for efficacy using multiple psychometric scales and for safety using clinical laboratory assessments, electrocardiograms (ECGs), vital signs, and physical examinations. After the last dose of study drug, subjects will continue to be monitored for safety for 2 weeks, including 4 in-person safety follow-up visits on Days 19, 22, 25/26, and 29/30.

[3] = test system: adults with major depressive disorder (MDD) who are at imminent risk of suicide; test: MOAA/S sedation, Phase 2 Part 1
[4] = test system: adults with major depressive disorder (MDD) who are at imminent risk of suicide; test: MADRS Total, Phase 2 Part 1 open-label; assay type: in vivo, human; settings: for MADRS mean score: baseline 39.4; for MADRS remission rate (a score of less than 12) / MADRS response rate: summary through Day 29/30
Excerpt: The Montgomery-Åsberg Depression Rating Scale (MADRS) is a diagnostic questionnaire that can be used to measure the severity of a depressive episode in a subject. In some embodiments, the MADRS can be used to measure suicidal ideation. For example, the MADRS includes 10 items directed to the following: 1) apparent sadness (e.g., representing despondency, gloom and despair that is more than just ordinary transient low spirits that is reflected in speech, facial expression, and posture); 2) reported sadness (e.g., representing reports of depressed mood, regardless of whether it is reflected in appearance or not and can include low spirits, despondency or the feeling of being beyond help and without hope); 3) inner tension (e.g., representing feelings of ill-defined discomfort, edginess, inner turmoil, mental tension mounting to either panic, dread or anguish); 4) reduced sleep (e.g., representing the experience of reduced duration or depth of sleep compared to the subject's own normal pattern when well); 5) reduced appetite (e.g., representing the feeling of a loss of appetite compared with when-well); 6) concentration difficulties (e.g., representing difficulties in collecting one's thoughts mounting to an incapacitating lack of concentration); 7) lassitude (e.g., representing difficulty in getting started or slowness in initiating and performing everyday activities); 8) inability to feel (e.g., representing the subjective experience of reduced interest in the surroundings, or activities that normally give pleasure, and the ability to react with adequate emotion to circumstances or people is reduced); 9) pessimistic thoughts (e.g., representing thoughts of guilt, inferiority, self-reproach, sinfulness, remorse and ruin); and 10) suicidal thoughts (e.g., representing the feeling that life is not worth living, that a natural death would be welcome, suicidal thoughts, and preparations for suicide). Each item is rated from 0 units to 6 units, with 0 reflecting that the subject is not at all as described by the item and 6 reflecting that the subject is extremely like what is described by the item. […] As another example, for suicidal thoughts, a score of 0 units can indicate that the subject enjoys life or takes it as it comes; a score of 2 units can indicate that the subject is weary of life and may have fleeting suicidal thoughts; a score of 4 units can indicate that the subject feels he or she would probably be better off dead (e.g., suicidal thoughts are common, and suicide is considered as a possible solution, but without specific plans or intention); and a score of 6 units can indicate that the subject has explicit plans for suicide when there is an opportunity (e.g., the subject has made active preparations for suicide). Thus, the total score, after summation of each score for each item, is on a scale of 0 units to 60 units.
as §1, with “After the last dose of study drug, subjects will continue to be monitored for safety for 2 weeks, including 4 in-person safety follow-up visits on Days 19, 22, 25/26, and 29/30.” left out

[5] = test system: adults with major depressive disorder (MDD) who are at imminent risk of suicide; test: Treatment-emergent adverse events, Phase 2 Part 1

With `CNC1(c2ccccc2Cl)CCCCC1=O` (racemic) [intranasal racemic ketamine, 1:1 mixture of the two enantiomers of ketamine: (R)-2-(2-chlorophenyl)-2-(methylamino)cyclohexanone and (S)-2-(2-chlorophenyl)-2-(methylamino)cyclohexanone] the CADSS score ([1]; 90 mg IN+SOC, Subject 1, all assessments, threshold for dissociation >4 units) was “zero”, the CADSS score ([1]; 90 mg IN+SOC, Subject 2, 40 minutes post-administration) was 2 units and the CADSS score ([1]; 90 mg IN+SOC, Subject 2, 1 hour post-administration) was “zero”. The clinically relevant dissociation ([1]; 90 mg IN+SOC, Subjects 1 and 2) was “neither subject exhibited clinically relevant dissociation”, the “clinically meaningful sedation or dissociation” value ([1]; 90 mg IN+SOC, entire patient cohort to the Day 29/30 endpoint) was “no clinically meaningful sedation or dissociation” and the “CADSS change from baseline (at 40 minutes)” value (“CADSS change from baseline” below) ([1]; Day 4 (after second dose)) was 2.3. For the same molecule, the “CADSS change from baseline” value ([1]; Day 8 (after third dose)) was 0.4, the “subjects with no dissociation (total CADSS score >4 units = dissociation)” value ([1]; Days 1 and 4) was “four” and the subjects reporting dissociation ([1]; after Day 4 (on Day 11 at 40 minutes), 7 subjects) was 1 subject. The “CADSS change from baseline” value ([1]; after first dose) was 3.8, the “Diastolic BP” value ([2]; 1 hour post first dose) was 80.9 and the “Systolic BP” value ([2]; 1 hour post first dose) was 125.8. The “Diastolic BP” value ([2]; 2 hours post first dose) was 78.5, the “Systolic BP” value ([2]; 2 hours post first dose) was 121.3 and the MOAA/S score ([3]; 90 mg IN+SOC, Subject 1, 15 minutes post-administration, pre-dose 5 units) was 4 units. For the same molecule, the MOAA/S score ([3]; 90 mg IN+SOC, Subject 1, 30 minutes) was 5 units, the MOAA/S score ([3]; 90 mg IN+SOC, Subject 2, throughout the trial) was 5 units and the sedation ([3]; 90 mg IN+SOC, Subjects 1 and 2, in contrast to intranasal (S)-ketamine) was “little to no sedation”. For the same molecule, the “subjects with MOAA/S score of 5 units at all time-points” value ([3]; Day 1) was 5 of 7 subjects, the “MOAA/S score (no one had a score below)” value ([3]; Day 1, 7 subjects) was at least 4 units and the “MADRS Total” value ([4]; 90 mg IN+SOC, Subject 1, 24 hours post-administration, baseline 35 units) was 8 units. The “MADRS Total” value ([4]; 90 mg IN+SOC, Subject 2, 24 hours post-administration, baseline 38 units) was 15 units, the “MADRS Total” value ([4]; 90 mg IN+SOC, Subject 2, Day 8, after second dose on Day 4) was 16 units and the “MADRS Total reduction” value ([4]; 90 mg IN+SOC, both subjects, 24 hours) was over 50%. The “MADRS mean (SD) change from baseline” value ([4]; 17 subjects enrolled, 24 hours post-dose) was −24.9 (8.34), the “MADRS mean (SD) change from baseline” value ([4]; 17 subjects enrolled, Day 16) was −31.6 (7.31) and the “subjects who experienced MADRS remission” value ([4]; 24 hours post-dose) was 35.5%. For the same molecule, the “subjects who experienced MADRS response” value ([4]; 24 hours post-dose) was 76.5%, the MADRS mean score ([4]; Day 1) was 14.5 and the “subjects who experienced MADRS remission” value ([4]; Day 16) was 78.6%. For the same molecule, the “subjects who experienced MADRS response” value ([4]; Day 16) was 92.9%, the MADRS mean score ([4]; Day 16) was 7.4 and the MADRS mean score ([4]; Day 29) was 6.3. The “MADRS mean (SD) change from baseline” value ([4]; final follow-up on Day 29/30) was −32.1 (7.4), the “mean MADRS score” value ([4]; final follow-up on Day 29/30) was 6.3 (6.60) and the “subjects who experienced MADRS remission” value ([4]; study end (Day 29/30)) was 76.9%. The “subjects who experienced MADRS response” value ([4]; study end (Day 29/30)) was 100%, the “MADRS remission rate (a score of less than 12)” value ([4]; Day 1) was 23.5% and the MADRS response rate ([4]; Day 1) was 76.5%. The “MADRS remission rate (a score of less than 12)” value ([4]; Day 16) was 78.6%, the MADRS response rate ([4]; Day 16) was 92.9% and the MADRS response rate ([4]; Day 29, 14 days after the last dose on Day 15) was 100%. For the same molecule, the serious adverse events ([5]; 90 mg IN+SOC, Part 1) was “no serious adverse events”, the “severity of adverse events” value ([5]; 90 mg IN+SOC, Part 1) was “mild or moderate” and the “subjects who experienced a treatment-emergent adverse event (TEAE)” value ([5]; 17 subjects) was 47%. For the same molecule, the tolerability ([5]; Part 1) was “well tolerated”, the “vital sign or blood pressure-related AEs” value ([5]; Part 1) was “no vital sign or blood pressure-related AEs were reported” and the TEAE feeling abnormal ([5]; n=2) was 11.8%. For the same molecule, the TEAE nausea ([5]; n=2) was 11.8%, the TEAE sedation ([5]; n=2) was 11.8% and the TEAE dizziness ([5]; n=3) was 17.6%. The TEAE headache ([5]; n=4) was 23.5%.
